CC50 data for 2 molecules are collected here from patent publication US20250154172A1, “PRMT5 INHIBITORS AND USES THEREOF” (Gilead Sciences, Inc., priority 2023, published 2025).

The test system of the assay is HCT116 MTAP-deleted cell lines. In words: Cell viability assay for HCT116 isogenic pair (CellTitre-Glo, 7 days). The assay is classed as cell-based. The following applies: Homo sapiens, HCT-116, 168 h, 7 days of treatment, cell line not given. In a few lines:
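HCT116 WT or MTAP-deleted cells, 100 per well, seeded onto pre-spotted PRMT5 inhibitor dose series in RPMI 1640/10% heat-inactivated FBS and grown 7 days at 37° C, 5% CO2. CellTiter-Glo luminescence then read; CC50 (nM) from 4-parameter logistic fit.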

What is called CC50 is the concentration at which the toxic effect on the cells reaches its halfway point. Higher therefore signals lower toxicity to the cells. `Nc1nc2cnc(C(=O)N3CCOC[C@@H]3c3ccc(C(F)(F)F)cc3)cc2c2c1COC2` [AMG193, reference compound] came in with a CC50 of 69 nM.

In turn, `Nc1nc2cnc(C(=O)N3CCC[C@@H]4Oc5cc(C(F)(F)F)cc(F)c5[C@@H]43)cc2c2c1COC2` [Example Ca-47, (4-amino-1,3-dihydrofuro[3,4-c][1,7]naphthyridin-8-yl)((4aS,9bS)-9-fluoro-7-(trifluoromethyl)-3,4,4a,9b-tetrahydrobenzofuro[3,2-b]pyridin-1(2H)-yl)methanone] had a half-maximal cytotoxic concentration (CC50) of 14 nM.
